Patent US20170066759A1, “AROMATIC 5-MEMBERED HETEROCYCLIC DERIVATIVE HAVING TRPV4-INHIBITING ACTIVITY” (Shionogi & Co., Ltd., priority 2012, published 2017)

Columns and labels:
Type in all cases: cell-based
[1] = biological target: T1, human TRPV4 (hTRPV4/CHO cells) (Homo sapiens, UniProt Q9HBA0); assay: Test Example 2: TRPV4 inhibitory activity (IC50 value), 4α-PDD stimulation, Fluo3 calcium fluorescence (FLIPR)
T1 construct: expressed in transfected cells; host or cells: CHO-K1
Experimental: TRPV4 Inhibitory Activity (IC50 Value)
(§1) For each compound, TRPV4 inhibitory activity was measured using cells.
(§2) (Method) The procedures of evaluating TRPV4 inhibitory activity of a compound are as follows.
(§3) (1) TRPV4 inhibitory activity was measured using CHO-K1 cells stably expressing human TRPV4 (hTRPV4/CHO cells).
(2) In the day before the experimental day, frozen cell were thawed and washed with the culture medium (MEM-α, 10% FBS, 4 mmol/L L-Glutamine, 50 unit Penicillin, 50 μg/mL Streptomycin). Then cells were suspended in the culture medium.
(3) The 384-well plates which hTRPV4/CHO cells were seeded at densities of 4000 cells/well in the culture medium and cultured in a CO2 incubator in the presence of 5% CO2 at 37° C. for 24 hours was used as assay plates.
(4) The assay plate was washed with assay buffer (Hanks, 20 mmol/L HEPES, 2.5 mmol/L probenecid, pH7.4), and the buffer were remained at 20 μL/well.
(5) 10 μl of dye loading buffer (9 μmol/L Fluo 3-AM, 0.09% Pluronic F-127, 1% BSA/assay buffer) was added to each well, then the assay plate was incubated in a CO2 incubator in the presence of 5% CO2 at 37° C. for one hour. (final conc.; 3 μmol/L Fluo3-AM).
(6) The assay plate was washed with the assay buffer, and the buffers were remained at 20 μL/well. Then the assay plate was incubated for 10 min at room temperature.
(7) 20 μL of diluted compound solution was added to each well of assay plate, and mixed with built-in Pipette and Mixer of the Fluorescence analysis system FLIPR 384 (Molecular devices).
(8) After incubation for 4 min, 25 μL of 4α-PDD solution were applied to each well of assay plate and mixed with the FLIPR TETRA. (final conc.; 600 nmol/L 4α-PDD)
(9) The fluorescent intensity was measured with FLIPR TETRA system for 7 min from the point of time addition the compound solution, at Ex 488 nm, Em 510-570 nm wavelength.
TRPV4 inhibitory activity (IC50 value) of a compound was calculated according to the following procedure.
(§4) (10) In the presence of the compound, the difference between maximal and minimal of fluorescent intensity value for 3 min from just before addition of 4α-PDD solution was calculated, and it was referred as Max-Min value. Max-Min value of the Ruthenium Red at 20 μM was defined as 100% inhibitory activity, Max-Min value in the absence of the compound was defined as 0% inhibitory activity. TRPV4 inhibitory activity of the compound was calculated by the following formula.
(§5) (1−(Max−Min value of the compound−100% inhibitory activity)/(0% inhibitory activity−100% inhibitory activity))×100
(11) Inhibitory activity was calculated at 10 points with twice serial dilution, in the final concentration of the compound from 3.85 μg/mL to 7.5 ng/mL, the IC50 value (nmol/L) was calculated by logistic approximation method.

[2] = biological target: T1, human TRPV4 (hTRPV4/CHO cells); assay: Test Example 1: TRPV4 inhibitory activity (IC50 value), 4α-PDD stimulation, Fluo4 calcium fluorescence (FLIPR TETRA); details: Test Example 1, 4α-PDD stimulation, read-out: Test 1 IC50
[3] = biological target: T1, human TRPV4 (hTRPV4/CHO cells); assay: Test Example 4: TRPV4 inhibitory activity (Ki value), 4α-PDD stimulation, Fluo-3 calcium fluorescence (FDSS 3000); details: Test Example 4, 4α-PDD stimulation, read-out: Test 4 Ki
Experimental: TRPV4 Inhibitory Activity (Ki Value)
as §1, §2, §3
(2) Cells were subcultured using the MEM-α medium (SIGMA M4526: 500 ml), FBS (HyCloneSH30070.03: 10%), L-Glutamine 200 mmol/L (GIBCO: 4 mmol/L), P/S (nacalai tesque: 1%), G418 (nacalai tesque: 1 mg/mL).
(3) The 96-well plates which hTRPV4/CHO cells were seeded at densities of 2×10^4 cells/well in the culture medium in the day before the experimental day, and cultured in a CO2 incubator in the presence of 5% CO2 at 37° C. for 24 hours was used as assay plates.
(4) Cells were washed with assay buffer (Hank's Balanced Salt Solution 9.8 g, 1 mol/L HEPES (pH7.5), 250 mmol/L probenecid).
(5) Fluo-3, fluorescent dye for Ca influx assay was added to each well, then the assay plate was incubated in a CO2 incubator in the presence of 5% CO2 at 37° C. for one hour (final conc.; 5 μmol/L Fluo-3).
(6) The assay plate was washed with the assay buffer, and the buffer was remained at 30 μL/well. Then the assay plate was incubated for 10 min at 37° C.
(7) 20 μL of diluted compound solution was added to each well of assay plate, and mixed with built-in Pipette and Mixer of the fluorescence analysis system FDSS 3000 (Hamamatsu Photonics).
(8) 50 μL of 4α-PDD solution (concluding 0.1% Pluronic F-127) was applied to each well of assay plate and mixed.
(9) The fluorescent intensity was measured by FDSS 3000 for 8 min from the point of time addition the compound solution, at Ex 480 nm, Em 540 nm wavelength.
TRPV4 inhibitory activity (Ki value) of a compound was calculated according to the following procedure.
as §4, with “8” for “3”, “10” for “20”
as §5
(11) By the following formula, inhibitory activity was calculated at 10 points with three fold serial dilution, in the final concentration of the compound from 10 μmol/L to 0.5 nmol/L. The IC50 value was calculated by dose-response curve.
100−[(fluorescent intensity in the presence of the compound−fluorescent intensity of back ground)/(total fluorescent intensity−fluorescent intensity of back ground)]×100
(12) In the presence of the compound, activity of 4α-PDD was measured at 9 points with three fold serial dilution from 20 μmol/L. Activity of 4α-PDD was calculated by the following formula.
(Max−Min value of the each 4α-PDD concentration−0% activity)/(100% activity−0% activity))×100
(13) Effective activity was calculated in 4α-PDD the above. The EC50 value was calculated by dose-response curve.
(14) The Ki value of a compound was calculated by the following formula.
Ki=IC50 value/1+([A]/EC50)
[A]: Concentration of agonist (nmol/L)

[4] = Test Example 2, 4α-PDD stimulation, read-out: Test 2 IC50

T1 sequence (Q9HBA0 whole entry): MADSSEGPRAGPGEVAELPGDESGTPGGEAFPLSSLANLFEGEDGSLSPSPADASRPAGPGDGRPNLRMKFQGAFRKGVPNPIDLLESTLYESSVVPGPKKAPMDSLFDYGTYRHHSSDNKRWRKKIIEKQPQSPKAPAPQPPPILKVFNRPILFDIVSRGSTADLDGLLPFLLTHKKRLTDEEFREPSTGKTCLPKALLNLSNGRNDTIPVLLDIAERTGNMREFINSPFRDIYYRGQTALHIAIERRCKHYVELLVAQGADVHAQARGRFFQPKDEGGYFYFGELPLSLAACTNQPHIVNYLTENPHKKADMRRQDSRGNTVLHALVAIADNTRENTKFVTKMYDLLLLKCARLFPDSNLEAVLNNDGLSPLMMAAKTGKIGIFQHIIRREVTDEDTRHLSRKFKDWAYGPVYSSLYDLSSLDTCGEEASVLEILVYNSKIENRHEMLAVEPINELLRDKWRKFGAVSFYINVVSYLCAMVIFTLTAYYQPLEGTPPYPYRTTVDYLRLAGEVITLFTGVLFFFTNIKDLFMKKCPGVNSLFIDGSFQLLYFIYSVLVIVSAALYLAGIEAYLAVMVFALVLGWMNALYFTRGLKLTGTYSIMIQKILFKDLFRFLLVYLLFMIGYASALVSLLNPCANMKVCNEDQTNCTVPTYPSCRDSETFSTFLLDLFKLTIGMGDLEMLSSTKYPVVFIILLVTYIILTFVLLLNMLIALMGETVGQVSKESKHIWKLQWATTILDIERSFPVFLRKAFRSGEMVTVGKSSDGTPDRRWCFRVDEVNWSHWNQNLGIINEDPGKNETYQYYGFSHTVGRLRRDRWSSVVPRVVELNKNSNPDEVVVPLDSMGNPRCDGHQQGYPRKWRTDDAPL

| IC50 ([1]; 600 nmol/L 4α-PDD, Fluo3-AM, read-out: TRPV4 inhibitory activity (IC50 value)) | IC50 [1, 4] | IC50 [2] | Ki [3] | SMILES |
| --- | --- | --- | --- | --- |
| 73 nM | < 100 nM |  |  | Cc1nc(C)c(-c2csc(Nc3ccccn3)n2)s1 [II-22] |
|  | 1000 to 8000 nM |  |  | C=CCNc1nc(-c2sc(C)nc2C)cs1 [II-24] |
|  | 100 to 1000 nM |  |  | COc1ccc(/C(C)=N/Nc2nc(-c3sc(C)nc3C)cs2)cc1 [II-19] |
|  | 1000 to 8000 nM |  |  | Cc1nc(N)sc1-c1csc(Nc2ccc(Br)cc2Br)n1 [II-21] |
|  | 1000 to 8000 nM |  |  | C/C(=N\Nc1nc(-c2cccs2)cs1)c1ccc(Cl)c(Cl)c1 [II-18] |
|  | 1000 to 8000 nM |  |  | O=C(Nc1nc(-c2cccs2)cs1)C1c2ccccc2Oc2ccccc21 [II-15] |
|  | 100 to 1000 nM |  |  | Cc1ccc(-c2csc(NC(=O)COc3ccc(Br)cc3)n2)s1 [II-16] |
|  | 1000 to 8000 nM |  |  | CC(=O)Nc1nc(-c2ccc(Br)s2)cs1 [II-13] |
|  | 1000 to 8000 nM |  |  | CC(C)(C)c1ccc(C(=O)Nc2nc(-c3ccc(Cl)s3)cs2)cc1 [II-12] |
|  | 1000 to 8000 nM |  |  | c1ccc(Nc2nc(-c3cccs3)cs2)nc1 [II-9] |
|  | 1000 to 8000 nM |  |  | O=C(CSc1ccccc1)Nc1nc(-c2ccc(Br)s2)cs1 [II-17] |
|  | 1000 to 8000 nM |  |  | O=C(Nc1nc(-c2ccc(Br)s2)cs1)c1cccc(F)c1 [II-11] |
|  | 1000 to 8000 nM |  |  | Cc1ccnc(Nc2nc(-c3sc(N)nc3C)cs2)c1 [II-23] |
|  | 100 to 1000 nM |  |  | Cc1cccc(Nc2nc(-c3sc(N)nc3C)cs2)c1 [II-20] |
|  | 1000 to 8000 nM |  |  | O=C(Nc1nc(-c2ccc(Br)s2)cs1)c1ccc(Br)s1 [II-14] |
|  | 1000 to 8000 nM |  |  | O=C(Nc1nc(-c2ccc(Cl)s2)cs1)c1cccc(C(F)(F)F)c1 [II-10] |

Second part, the molecule before the results:

| SMILES | IC50 ([1]; 600 nmol/L 4α-PDD, Fluo3-AM, read-out: TRPV4 inhibitory activity (IC50 value)) | IC50 [1, 4] | IC50 [2] | Ki [3] |
| --- | --- | --- | --- | --- |
| N=C(N)Nc1ncc(-c2csc(NC(=O)c3ccccc3)n2)s1 [Compound I-187] |  | 1000 to 8000 nM |  |  |
| Cc1nc(C)c(-c2csc(NC(=O)N(C)c3ccc(Br)cc3)n2)s1 [Compound I-59] |  |  | 100 to 1000 nM | 100 to 1000 nM |
| Cc1ncc(-c2csc(NC(=O)Cc3ccc(Br)cc3)n2)s1 [Compound I-14] |  |  | < 100 nM | < 100 nM |
| Cc1nc(CF)sc1-c1csc(NC(=O)Cc2ccc(S(=O)(=O)C(F)(F)F)cc2)n1 [Compound I-31] |  |  | < 100 nM | < 100 nM |
| Cc1nc(C)c(-c2csc(NC(=O)C3CCC3)n2)s1 [Compound I-226] |  |  | 100 to 1000 nM | < 100 nM |
| Cc1nc(C)c(-c2csc(NC(=O)C3CCCCC3)n2)s1 [Compound I-223] |  |  | 100 to 1000 nM | 100 to 1000 nM |
| Cc1nc(C)c(-c2csc(NC(=O)C3Cc4ccccc4C3)n2)s1 [Compound I-43] |  |  | < 100 nM | < 100 nM |
| Cc1nc(C)c(-c2csc(NC(=O)C3(c4ccc(Cl)cc4)CC3)n2)s1 [Compound I-2] |  |  | 100 to 1000 nM | 100 to 1000 nM |
| Cc1nc(C)c(-c2csc(NC(=O)C3CC3(F)F)n2)s1 (stereo not shown) [Compound I-27] |  |  | 100 to 1000 nM | < 100 nM |
| Cc1nc(C)c(-c2csc(NC(=O)C3CC(=O)N(Cc4ccccc4)C3)n2)s1 (stereo not shown) [Compound I-47] |  |  | 1000 to 8000 nM | 100 to 1000 nM |
| Cc1nc(C)c(-c2csc(NC(=O)C3CC(F)(F)C3)n2)s1 [Compound I-34] |  |  | 100 to 1000 nM | < 100 nM |
| Cc1nc(C)c(-c2csc(NC(=O)Cc3ccc(CS(=O)(=O)C(F)(F)F)cc3)n2)s1 [Compound I-35] |  |  | < 100 nM | < 100 nM |
| Cc1nc(C)c(-c2csc(NC(=O)c3ccc(S(=O)(=O)C(F)(F)F)cc3)n2)s1 [Compound I-24] |  |  | 100 to 1000 nM | 100 to 1000 nM |
| Cc1ncsc1-c1csc(NC(=O)Cc2ccc(Br)cc2)n1 [Compound I-13] |  |  | < 100 nM | 100 to 1000 nM |
| Cc1nc(C)c(-c2csc(NC(=O)Cn3cc(Cl)cn3)n2)s1 [Compound I-50] |  |  | 100 to 1000 nM | < 100 nM |
| Cc1nc(C)c(-c2csc(NC(=O)Cc3ccc(C(F)(F)F)cc3)n2)s1 [Compound I-19] |  |  | < 100 nM | < 100 nM |
| Cc1nc(C)c(-c2csc(NC(=O)Cc3ccc(S(=O)(=O)C(F)F)cc3)n2)s1 [Compound I-36] |  |  | < 100 nM | < 100 nM |
| Cc1nc(C)c(-c2csc(NC(=O)C3CCCC3)n2)s1 [Compound I-224] |  |  | 100 to 1000 nM | < 100 nM |
